Target: Concanavalin A (Con A), as Con A-ALP conjugate (Canavalia ensiformis, UniProt P02866)
Test: competitive electrochemical lectin assay
Format: binding

Chain of Concanavalin A (Con A), as Con A-ALP conjugate (P02866 164-281 limits assumed): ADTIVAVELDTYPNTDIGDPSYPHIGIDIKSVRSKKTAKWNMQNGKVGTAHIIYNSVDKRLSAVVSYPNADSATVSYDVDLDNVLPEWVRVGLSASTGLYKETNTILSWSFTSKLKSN
Chain of Concanavalin A (Con A), as Con A-ALP conjugate (P02866 30-148 limits assumed): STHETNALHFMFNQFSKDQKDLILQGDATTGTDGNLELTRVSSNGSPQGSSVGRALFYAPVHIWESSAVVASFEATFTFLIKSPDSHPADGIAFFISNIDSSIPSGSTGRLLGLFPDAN

## CO[C@H]1O[C@H](CO)[C@@H](O)[C@H](O)[C@@H]1O [methyl α-D-mannopyranoside]
  IC50: ~90 µM

Source: article PMC3941082 (Journal of electroanalytical chemistry (Lausanne, …, 2014)
